“Also recorded” adds a separate entry of the source.
Test system: eHsp90
Experiment: In vivo tracking of eHsp90 expression in CIA mouse model of RA (flow cytometry, CryoViz imaging)
Method: FIG. 5A is a schematic of CIA mouse model of RA experimental design, wherein mice were inoculated with CIA on day 0) and 21. […] 6-hours post treatment mice were whole body cryopreserved. […] Gated regions indicate CD4 and CD8 T-Cell populations isolated from individual mice. eHsp90 expression in CD4 and CD8 T cells 6 hours post HS-131 or HS-198 treatment. N=3+SD. Experiments represent 3 biological replicates.
CIA Disease: Collagen was prepared at 4 mg/ml in 0.01 N acetic acid. Equal volumes of 4 mg/ml collagen and 5 mg/ml Freund's complete adjuvant were emulsified by hand mixing with syringes for approximately 5 min, at which point a bead of this material holds its form when placed in water. On study days 0 and 21, animals were anesthetized with isoflurane and given intradermal injections of a total of 400 μg of type II collagen in Freund's complete adjuvant at the base of the tail.
CryoViz™ Imaging: Whole mice were imaged at 10.23 μm×10.23 μm in-plane resolution using an Olympus MVX-10 microscope with a 1X objective and 0.63× magnification and 40 μm section thickness, using the Cryo Viz™ (BioInVision, Inc., Cleveland, USA). CryoViz™ is a fully automated, serial sectioning-and-imaging system which provides 3-dimensional, tiled, microscopic anatomical bright field and molecular fluorescence images over large fields-of-view such as a whole mouse. Images were acquired using a dual band FITC/TxRed fluorescence filter (Chroma, Inc., Rockingham, VT), a liquid crystal RGB filter and a low-noise monochrome camera. Raw images acquired by the Cryo Viz™ were processed to generate 3D color anatomical brightfield and molecular fluorescence volumes using the Cryo Viz™ Preprocessor software (BioIn Vision, Inc., Cleveland, Ohio). These 3D volumetric image data were then processed using the CryoViz™ 3D Visualizer software (BioInVision, Inc., Cleveland, USA) to obtain 3D reconstructed brightfield and fluorescence volume renderings and movies with 2D slice cutaway animations, showing the 2D/3D biodistribution of TxRed labeled HS-131 within the mouse volume.
This was consistently seen in cell culture, tumor cell xenografts and mouse models of spontaneous metastatic disease (Barrott et al. Chem Biol 20. 1187-1197 (2013)). […] To determine if this phenomenon occurred within the context of a fully functional immune system, the collagen induced arthritic (CIA) mouse model of human rheumatoid arthritis (RA) was utilized (Rice et al. Arthritis Rheum 58. 3765-3775 (2008)). Mice (DBA/IlacJ ˜8 weeks old) reliably develop polyarthritis when immunized against bovine type II collagen (Scarneo et al. Arthritis Res Ther 21, 292 (2019): Campbell et al., Ann Rheum Dis 56, 364-368 (1997)). The disease that occurs is usually non-symmetric, and any combination of paws/joints may be affected. Mice were injected […] with bovine collagen at Day (and then again 21 days later (FIG. 5A). This second injection triggered the development of the CIA related symptoms over the next several days within the joints. A primary mediator of local inflammatory responses in autoimmunity are invading T cell populations recognizing foreign antigens. To determine if invading T cells at sites of active disease expressed eHsp90, the animals were injected with HS-131 or HS-198. This was done at the peak of RA symptoms following the second immune challenge. After 6 hours, the animals were euthanized, immediately cryo-frozen in liquid nitrogen and cryo-sectioned (see, FIG. 5A).
Approximately, 500 40 μm slices were made and each slice imaged with both bright field and by fluorescence at Ex640 nm/Em680 nm. Evaluation of the biodistribution was then made by histological examination of individual slices and after in silico reconstruction of the entire mouse anatomy (see, FIGS. 5B-5E).

## Cc1nn(-c2ccc(C(N)=O)c(NCCCOCCOCCOCCOCCOCCCNCc3ccc(C(=C\C=C4\N(CCCCS(=O)(=O)[O-])c5ccccc5C4(C)C)/C=C/C4=[N+](CCCCS(=O)(=O)O)c5ccccc5C4(C)C)cc3)c2)c2c1C(=O)CC(C)(C)C2 [HS-131]
10 nmoles tail vein, 6 hours post injection (FIGS. 6A-6C)
  probe uptake in joints of naïve non diseased animal compared to CIA diseased animal: no marked HS-131 in the joints
6 hours post tail vein injection
  systemic distribution in whole-body reconstruction of CIA mice: largely confined to areas of active immune cell invasion
6 hours post tail vein injection, CD4 and CD8 T cells (FIG. 5B)
  probe signal (eHsp90 expression) in T cells of PBMC populations from CIA mice by flow cytometry: pronounced eHsp90 expression
6 hours post tail vein injection, cryo-sections (FIG. 5C)
  probe localization in hind leg, knee, hip and paw of CIA mouse: marked increase
24 hours post HS-131 injection (FIG. 7B)
  fluorescence associated with the lower intestine of CIA mice: no discrete fluorescence
mice
  route of elimination / clearance: via the hepatobiliary system and intestines; also recorded: exclusively eliminated through the biliary system and intestine; also recorded: rapid hepatobiliary clearance

From US20240299358A1, “COMPOSITIONS AND METHODS FOR DIAGNOSIS AND TREATMENT OF AUTOIMMUNE DISEASES” (DUKE UNIVERSITY, priority 2021, published 2024)
